Test: Solubility test of PrdP2Phen by LC-MS analysis
Assay type: physicochemical
Conditions: 1 mg in 1 mL of water, ultrasonic waves 5 minutes, membrane-filtered, filtrate analysed by LC-MS; one atmosphere, room temperature
Experimental: Next, a solubility test of PrdP2Phen was performed. Note that the solubility test was conducted at a pressure of one atmosphere at room temperature (RT).
In the LC-MS analysis, liquid chromatography (LC) separation was carried out with ACQUITY UPLC (Waters Corporation), and MS analysis (mass spectrometry) was carried out with Xevo G2 Tof MS (Waters Corporation). Acquity UPLC BEH C8 (2.1×100 mm, 1.7 μm) was used as a column for the LC separation. Acetonitrile was used for Mobile Phase A and a 0.1% aqueous solution of formic acid was used for Mobile Phase B. The injection amount of the sample was 5.0 μL. Note that in the analysis, the wavelength of a photodiode array detector was set to 263 nm±1 nm.
In a 5-mL sample bottle, 1 mg of PrdP2Phen was put and 1 mL of water was added thereto. This mixture was irradiated with ultrasonic waves for 5 minutes. This mixture was filtered through a membrane filter to remove the solid, and the resulting filtrate was diluted by five times with acetonitrile. The obtained solution was subjected to LC-MS analysis.

With `c1cc(-c2ccc(N3CCCC3)cc2)c2ccc3c(-c4ccc(N5CCCC5)cc4)ccnc3c2n1` [PrdP2Phen, 4,7-bis[4-(1-pyrrolidinyl)phenyl]-1,10-phenanthroline] the solubility in water was “extremely low solubility in water”.
